Reference: ChEMBL document CHEMBL5620419, “Discovery of new Lenalidomide derivatives as potent and selective GSPT1 degraders” (Eur J Med Chem, 2023)

Target: Protein cereblon/Eukaryotic peptide chain release factor GTP-binding subunit ERF3A (Homo sapiens, UniProt P15170+Q96SW2)
Assay: PROTAC activity at CRBN/GSPT1 in human U-937 cells assessed as degradation of GSPT1 measured after 6 hrs by Western blot analysis
Type: cell-based

Chain of Protein cereblon/Eukaryotic peptide chain release factor GTP-binding subunit ERF3A (Q96SW2 whole entry): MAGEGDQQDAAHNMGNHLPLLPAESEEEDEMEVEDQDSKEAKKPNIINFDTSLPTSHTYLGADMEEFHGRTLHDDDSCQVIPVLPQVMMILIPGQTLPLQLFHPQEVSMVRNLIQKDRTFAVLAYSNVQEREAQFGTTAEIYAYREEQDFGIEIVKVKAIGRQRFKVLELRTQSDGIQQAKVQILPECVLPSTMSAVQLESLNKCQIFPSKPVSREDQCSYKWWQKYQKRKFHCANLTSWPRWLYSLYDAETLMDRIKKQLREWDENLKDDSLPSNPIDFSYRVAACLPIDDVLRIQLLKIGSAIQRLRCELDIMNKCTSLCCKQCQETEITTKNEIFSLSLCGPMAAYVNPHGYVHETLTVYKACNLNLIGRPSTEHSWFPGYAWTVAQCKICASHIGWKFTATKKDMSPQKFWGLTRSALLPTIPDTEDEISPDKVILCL
Chain of Protein cereblon/Eukaryotic peptide chain release factor GTP-binding subunit ERF3A (P15170 whole entry): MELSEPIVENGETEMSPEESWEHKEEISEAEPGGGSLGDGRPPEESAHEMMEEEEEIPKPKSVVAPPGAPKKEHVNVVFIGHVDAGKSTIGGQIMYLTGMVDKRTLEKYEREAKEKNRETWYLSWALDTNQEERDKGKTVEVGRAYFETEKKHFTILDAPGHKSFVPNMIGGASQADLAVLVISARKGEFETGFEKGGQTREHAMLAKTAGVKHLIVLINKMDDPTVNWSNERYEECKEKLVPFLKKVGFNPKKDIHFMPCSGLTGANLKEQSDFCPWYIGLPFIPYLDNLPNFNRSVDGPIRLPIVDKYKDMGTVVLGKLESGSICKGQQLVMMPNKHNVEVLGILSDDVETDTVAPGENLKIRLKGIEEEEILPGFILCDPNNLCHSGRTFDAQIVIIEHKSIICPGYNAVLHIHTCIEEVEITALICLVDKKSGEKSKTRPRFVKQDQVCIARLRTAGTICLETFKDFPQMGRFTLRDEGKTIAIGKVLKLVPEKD

An EC50 of 86 nM was found for Cc1c(Cl)cc(NC(=O)CCc2ccc3c(c2)C(=O)N(C2CCC(=O)NC2=O)C3)cc1CN1CC2(COC2)C1 (stereo unspecified) in this work.
